US12331035B2, “Bicyclic compound and use thereof” (SK BIOPHARMACEUTICALS CO., LTD., priority 2019, dated 2025)

These compounds were tested against T1, PRMT5-MEP50 enzyme complex (Homo sapiens, UniProt O14744) (assay: In vitro PRMT5 enzyme activity assay (methylation of histone H4 arginine H4R3, ELISA absorbance at 450 nm)). Settings: S-adenosylmethionine, histone H4 peptide, 2 hours at room temperature, 8 points 10 μM to 0.128 nM.
T1 construct: purchased BPS Bioscience (USA) 51045
Assay type: biochemical
In short: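 Human PRMT5-MEP50 (5 μg/mL working stock) with 2 μM SAM stock on histone H4 (1-20) peptide-coated plates, compound 8-point 1:5 series from 10 μM, 2 h at room temperature. H4R3 methylation detected by antibody/HRP ELISA, absorbance 450 nm; IC50 calculated.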

T1 sequence (O14744 2-637 limits assumed): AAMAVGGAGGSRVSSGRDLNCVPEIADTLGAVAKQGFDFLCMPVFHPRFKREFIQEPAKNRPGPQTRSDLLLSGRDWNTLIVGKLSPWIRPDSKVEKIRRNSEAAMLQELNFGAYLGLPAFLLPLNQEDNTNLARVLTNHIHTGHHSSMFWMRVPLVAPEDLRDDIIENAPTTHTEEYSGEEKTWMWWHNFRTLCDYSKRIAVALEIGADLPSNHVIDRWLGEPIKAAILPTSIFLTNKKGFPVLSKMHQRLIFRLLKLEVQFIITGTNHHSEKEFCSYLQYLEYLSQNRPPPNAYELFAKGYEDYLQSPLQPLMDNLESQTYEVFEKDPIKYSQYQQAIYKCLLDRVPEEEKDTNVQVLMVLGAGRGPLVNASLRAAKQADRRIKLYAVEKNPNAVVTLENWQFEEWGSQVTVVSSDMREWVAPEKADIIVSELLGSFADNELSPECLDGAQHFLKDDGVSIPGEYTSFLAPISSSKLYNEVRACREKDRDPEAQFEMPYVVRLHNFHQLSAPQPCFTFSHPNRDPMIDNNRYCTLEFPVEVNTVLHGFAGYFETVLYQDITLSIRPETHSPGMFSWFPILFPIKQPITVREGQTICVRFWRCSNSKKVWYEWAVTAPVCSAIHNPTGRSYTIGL
T1 sequence (Q9BQA1 2-342 partner limits assumed): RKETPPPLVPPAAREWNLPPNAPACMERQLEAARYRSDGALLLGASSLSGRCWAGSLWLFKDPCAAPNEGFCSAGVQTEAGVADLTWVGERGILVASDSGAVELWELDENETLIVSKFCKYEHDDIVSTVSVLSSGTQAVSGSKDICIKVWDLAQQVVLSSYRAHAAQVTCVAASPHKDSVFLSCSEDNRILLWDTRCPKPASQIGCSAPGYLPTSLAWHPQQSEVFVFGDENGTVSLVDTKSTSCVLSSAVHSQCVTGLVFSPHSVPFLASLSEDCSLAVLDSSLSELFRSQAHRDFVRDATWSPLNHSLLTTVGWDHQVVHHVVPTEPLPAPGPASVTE

Structure (SMILES) | IC50
CC(=O)N1CCC(Nc2ccc3c(c2)CCN(C[C@H](O)CN2CCc4ccccc4C2)C3=O)C1 (stereo partly drawn) [Example 99, 6-[(1-acetylpyrrolidin-3-yl)amino]-2-[(2R)-3-(3,4-dihydro-1H-isoquinolin-2-yl)-2-hydroxy-propyl]-3,4-dihydroisoquinolin-1-one] | 100 to 1000 nM
N#CN1CCN(c2ccc3c(c2)CCN(C[C@H](O)CN2CCc4ccccc4C2)C3=O)CC1 [Example 101, 4-[2-[(2R)-3-(3,4-dihydro-1H-isoquinolin-2-yl)-2-hydroxy-propyl]-1-oxo-3,4-dihydroisoquinolin-6-yl]piperazine-1-carbonitrile] | 1 to 100 nM
O=C1c2ccc(N3CCn4ccnc4C3)cc2CCN1C[C@H](O)CN1CCc2ccccc2C1 [Example 102, 6-(6,8-dihydro-5H-imidazo[1,2-a]pyrazin-7-yl)-2-[(2R)-3-(3,4-dihydro-1H-isoquinoline-2-yl)-2-hydroxy-propyl]-3,4-dihydroisoquinolin-1-one] | 1 to 100 nM
CC1CN(c2ccc3c(c2)CCN(C[C@H](O)CN2CCc4ccccc4C2)C3=O)CC(=O)N1C (stereo partly drawn) [Example 103, 2-[(2R)-3-(3,4-dihydro-1H-isoquinolin-2-yl)-2-hydroxy-propyl]-6-(3,4-dimethyl-5-oxo-piperazin-1-yl)-3,4-dihydroisoquinolin-1-one] | 1 to 100 nM
CC(=O)N1CCN(c2ccc3c(c2)C(C)(C)CN(C[C@H](O)CN2CCc4ccccc4C2)C3=O)CC1 [Example 104, 6-(4-acetylpiperazin-1-yl)-2-[(2R)-3-(3,4-dihydro-1H-isoquinolin-2-yl)-2-hydroxy-propyl]-4,4-dimethyl-3H-isoquinolin-1-one] | 1 to 100 nM
CC(=O)N1CCN(c2ccc3c(c2)C2(CC2)CN(C[C@H](O)CN2CCc4ccccc4C2)C3=O)CC1 [Example 105, 6-(4-acetylpiperazin-1-yl)-2-[(2R)-3-(3,4-dihydro-1H-isoquinolin-2-yl)-2-hydroxy-propyl]spiro[3H-isoquinoline-4,1′-cyclopropane]-1-one] | 1 to 100 nM
O=C1c2ccc(N3CCC(N4CCCC4)CC3)cc2CCN1C[C@H](O)CN1CCc2ccccc2C1 [Example 106, 2-[(2R)-3-(3,4-dihydro-1H-isoquinolin-2-yl)-2-hydroxy-propyl]-6-(4-pyrrolidin-1-yl-1-piperidyl)-3,4-dihydroisoquinolin-1-one] | 1 to 100 nM
O=C1c2ccc(N3CCC(N4CCCCC4)CC3)cc2CCN1C[C@H](O)CN1CCc2ccccc2C1 [Example 107, 2-[(2R)-3-(3,4-dihydro-1H-isoquinolin-2-yl)-2-hydroxy-propyl]-6-[4-(1-piperidyl)-1-piperidyl]-3,4-dihydroisoquinolin-1-one] | 100 to 1000 nM
O=C1c2ccc(N3CCC(N4CCOCC4)CC3)cc2CCN1C[C@H](O)CN1CCc2ccccc2C1 [Example 108, 2-[(2R)-3-(3,4-dihydro-1H-isoquinolin-2-yl)-2-hydroxy-propyl]-6-(4-morpholino-1-piperidyl)-3,4-dihydroisoquinolin-1-one] | 100 to 1000 nM
COCCN1CCN(c2ccc3c(c2)CCN(C[C@H](O)CN2CCc4ccccc4C2)C3=O)CC1 [Example 109, 2-[(2R)-3-(3,4-dihydro-1H-isoquinolin-2-yl)-2-hydroxy-propyl]-6-[4-(2-methoxyethyl)piperazin-1-yl]-3,4-dihydroisoquinolin-1-one] | 100 to 1000 nM
CN(C)C1CCN(c2ccc3c(c2)CCN(C[C@H](O)CN2CCc4ccccc4C2)C3=O)CC1 [Example 110, 2-[(2R)-3-(3,4-dihydro-1H-isoquinolin-2-yl)-2-hydroxy-propyl]-6-[4-(dimethylamino)-1-piperidyl]-3,4-dihydroisoquinolin-1-one] | 100 to 1000 nM
CN(C)C1CCN(c2ccc3c(c2)C(C)(C)CN(C[C@H](O)CN2CCc4ccccc4C2)C3=O)CC1 [Example 111, 2-[(2R)-3-(3,4-dihydro-1H-isoquinolin-2-yl)-2-hydroxy-propyl]-6-[4-(dimethylamino)-1-piperidyl]-4,4-dimethyl-3H-isoquinolin-1-one] | 100 to 1000 nM
CC1(C)CN(C[C@H](O)CN2CCc3ccccc3C2)C(=O)c2ccc(N3CCOCC3)cc21 [Example 112, 2-[(2R)-3-(3,4-dihydro-1H-isoquinolin-2-yl)-2-hydroxy-propyl]-4,4-dimethyl-6-morpholino-3H-isoquinolin-1-one] | 100 to 1000 nM
O=C1c2ccc(OCCN3CCOCC3)cc2CCN1C[C@H](O)CN1CCc2ccccc2C1 [Example 113, 2-[(2R)-3-(3,4-dihydro-1H-isoquinolin-2-yl)-2-hydroxy-propyl]-6-(2-morpholinoethoxy)-3,4-dihydroisoquinolin-1-one] | 1 to 100 nM
CCN1CCC(Oc2ccc3c(c2)CCN(C[C@H](O)CN2CCc4ccccc4C2)C3=O)CC1 [Example 114, 2-[(2R)-3-(3,4-dihydro-1H-isoquinolin-2-yl)-2-hydroxy-propyl]-6-[(1-ethyl-4-piperidyl)oxy]-3,4-dihydroisoquinolin-1-one] | 100 to 1000 nM
CCN1CCC(COc2ccc3c(c2)CCN(C[C@H](O)CN2CCc4ccccc4C2)C3=O)CC1 [Example 115, 2-[(2R)-3-(3,4-dihydro-1H-isoquinolin-2-yl)-2-hydroxy-propyl]-6-[(1-ethyl-4-piperidyl)methyloxy]-3,4-dihydroisoquinolin-1-one] | 100 to 1000 nM
CN(C)C1CCCN(c2ccc3c(c2)CCN(C[C@H](O)CN2CCc4ccccc4C2)C3=O)C1 (stereo partly drawn) [Example 116, 2-[(2R)-3-(3,4-dihydro-1H-isoquinolin-2-yl)-2-hydroxy-propyl]-6-[3-(dimethylamino)-1-piperidyl]-3,4-dihydroisoquinolin-1-one] | 100 to 1000 nM
CN(C)CC1CCN(c2ccc3c(c2)CCN(C[C@H](O)CN2CCc4ccccc4C2)C3=O)CC1 [Example 117, 2-[(2R)-3-(3,4-dihydro-1H-isoquinolin-2-yl)-2-hydroxy-propyl]-6-[4-[(dimethylamino)methyl]-1-piperidyl]-3,4-dihydroisoquinolin-1-one] | 100 to 1000 nM
CCN(CC)C1CCN(c2ccc3c(c2)CCN(C[C@H](O)CN2CCc4ccccc4C2)C3=O)CC1 [Example 118, 6-[4-(diethylamino)-1-piperidyl]-2-[(2R)-3-(3,4-dihydro-1H-isoquinolin-2-yl)-2-hydroxy-propyl]-3,4-dihydroisoquinolin-1-one] | 100 to 1000 nM
CN(C)CCOC1CCN(c2ccc3c(c2)CCN(C[C@H](O)CN2CCc4ccccc4C2)C3=O)CC1 [Example 119, 2-[(2R)-3-(3,4-dihydro-1H-isoquinolin-2-yl)-2-hydroxy-propyl]-6-[4-[2-(dimethylamino)ethoxy]-1-piperidyl]-3,4-dihydroisoquinolin-1-one] | 100 to 1000 nM
COCCN(C)C1CCN(c2ccc3c(c2)CCN(C[C@H](O)CN2CCc4ccccc4C2)C3=O)CC1 [Example 120, 2-[(2R)-3-(3,4-dihydro-1H-isoquinolin-2-yl)-2-hydroxy-propyl]-6-[4-[2-methoxyethyl(methyl)amino]-1-piperidyl]-3,4-dihydroisoquinolin-1-one] | 1 to 100 nM
O=C1c2ccc(N3CCN(C4COC4)CC3)cc2CCN1C[C@H](O)CN1CCc2ccccc2C1 [Example 121, 2-[(2R)-3-(3,4-dihydro-1H-isoquinolin-2-yl)-2-hydroxy-propyl]-6-[4-(oxetan-3-yl)piperazin-1-yl]-3,4-dihydroisoquinolin-1-one] | 100 to 1000 nM
